Data reported in US9365851B2, “Spalt-like transcription factor 4 (SALL4) and uses thereof” (National University of Singapore, priority 2011, dated 2016).
Each block holds one sequence with its values, some of them ahead of it. No end group written: not given here.

How the values were obtained:
AN3CA cells = assay: In vivo metastasis assay (retro-orbital injection) in NOD/SCID mice; conditions: 6 weeks after injection
Description: All experimental procedures involving animals were conducted in accordance with the institutional guidelines set forth by the Children's Hospital Boston (CHB animal protocol number 11-09-2022). Eight to ten-week-old NOD/SCID mice were housed in a specific pathogen-free facility. To generate a xenograft mouse model, NOD/SCID mice were injected with 2×10^6 cells into right flanks. Cells were resuspended in 0.1 ml of PBS and then mix with 0.1 ml of matrigel. Two cell lines were prepared for xenografts: AN3CA and HEC-1A. Tumor sizes were measured weekly. As for metastasis mouse model, 1×10^6 AN3CA cells—were injected via the retro-orbital sinus as described previously (2). […] Cell proliferation in tumor was determined by staining histological sections with monoclonal antibody against Ki-67 (BD, Cat. No. 556003), and apoptosis was evaluated by terminal uridine deoxynucleotidyl transferase dUTP nick end labeling (TUNEL) assay (in situ cell death detection kit, Promega, Cat. No. G3250) according to manufacturer's protocol.
Next assessed was whether loss of SALL4 could affect tumor invasiveness. […] The invasive potential of these three cell lines in vitro: AN3CA, HEC-1A and Ishikawa cells was compared, and a strong association between SALL4 expression and invasive capacity was detected, with Ishikawa showing the least migration/invasion ability (data not shown). […]

SALL4A and SALL4B = assay: SALL4 knock-down in endometrial cancer cells (Western blot, qRT-PCR); assay type: cell-based, human; conditions: AN3CA and HEC-1A
Source text: In brief, the expression plasmids for human SALL4A and SALL4B were constructed using FUW-Luc-mCh-puro vector (FIG. 43A). SALL4A or SALL4B mutant preserving the same amino acid sequence, but containing triple-point mutations within the SALL4shRNA1 target nucleotide sequence, which renders the transgenes resistant to SALL4 shRNA targeting, were generated using QuikChange site-directed mutagenesis kit (Stratagene) and confirmed by sequencing. Short hairpin RNAs set for human SALL4 in pLKO.1-puro vector were purchased from Open Biosystems (RHS3979) and knockdown efficiency was further evaluated. Two of them, designated as SALL4shRNA1 and SALL4shRNA 2, were selected for subsequent experiments. The sequences for SALL4 shRNAs and Scramble shRNA are listed as following: SALL4shRNA1: […] (SEQ ID NO: 3); SALL4shRNA 2: CTATTTAGCCAAAGGCAAA (SEQ ID NO: 2); Scr-shRNA: […] (SEQ ID NO: 14)
To assess the biological functional role of SALL4 in endometrial cancer, first evaluated was SALL4 expression in a panel of six endometrial cancer cell lines using quantitative real-time PCR to select for appropriate models for our functional studies (FIG. 40). […]

SNU387 = assay: Cellular uptake of FITC-labeled peptide; assay type: cell-based, human; conditions: SNU387, with Chariot
Description: (§1) Cells were grown typically in 6 well plates (35 mm dish) to 50-70% confluence. Usually the transfect ion efficiency is somehow cell type specific. 2 mM peptide was diluted 4 times in PBS (2 ul+6 ul) (For FITC peptidedo not dilute the 2 mM stock). For each transfection reaction tube with 100 ul PBS+1 ul diluted peptide was set up. Chariot reagent was diluted 1:10 in ddH2O and for each transfection a 94 ul H2O tube+6 ul diluted Chariot was prepared (No master mix for more than 4 transfections). The 2 tubes were carefully mixed by pipetting up and down and incubated 30 min. at room temperature. Medium was aspirated from the dish (well) and cells were overlay with the mix. 400 ul serum free medium was added and cells were incubated further for 1 h 37 C (cell incubator). 500 ul complete medium (with 10% serum) was finally added. If cells are not very sensitive to serum starvation (cancer cell lines) 5% serum could be used.
(§2) Fluorescent and Confocal microscopy was performed on cells treated with FITC labeled peptides with or without of transfection reagent depending on the cell type. Cells were mounted on cover slips using mounting media with DAPI (Invitrogen) and in some cases cytoskeleton dye (Invitrogen).
(§3) In order to evaluate their cellular uptake and localization, the N terminus of these peptides was labeled with fluorescein isothiocyanate (FITC). Despite the net positive charge of these peptides, their uptake by the cells is cell-type specific. Some cell lines such as HL-60 (an AML cell line) allowed the peptide to enter the cells without any modification or carrier, and some cell lines were not penetrable at all. In order to achieve a similar level of peptide delivery in most cell types, a Chariot Transfection Reagent (Active Motif) was used as a peptide carrier, as directed from the manufacturer. All cell types used in the study described herein were subjected to individual evaluation of the percentage of the cells in which the peptide was delivered as well as the duration of time during which they sustained the labeled peptide in the cells. After Chariot treatment, confocal microscopy studies confirmed uptake of these peptides throughout the cell, including nuclei (as evidenced by DAPI overlay, FIG. 1B).

AML = assay: Cellular uptake of FITC-labeled peptide; assay type: cell-based, human; conditions: with Chariot
Description: as §1, §2, §3

HuH-7 = assay: Cellular uptake of FITC-labeled peptide; assay type: cell-based, human; conditions: HuH-7, with Chariot
Description: as §1, §2, §3

HL60 = assay: Cellular uptake of FITC-labeled peptide; assay type: cell-based, human; conditions: HL60, no carrier
Description: as §1, §2, §3

MCF7 = assay: Cellular uptake of FITC-labeled peptide; assay type: cell-based; conditions: MCF7, with Chariot
Description: as §1, §2, §3

CD34+ = assay: Cellular uptake of FITC-labeled peptide; assay type: cell-based; conditions: with Chariot
Description: as §1, §2, §3

KG1a = assay: Cellular uptake of FITC-labeled peptide; assay type: cell-based; conditions: no carrier
Description: as §1, §2, §3

AML3 = assay: Cellular uptake of FITC-labeled peptide; assay type: cell-based; conditions: AML3, no carrier
Description: as §1, §2, §3

SNU-398 = assay: Cellular uptake of FITC-labeled peptide; assay type: cell-based, human; conditions: SNU-398, with Chariot
Description: as §1, §2, §3
Next tested was the cellular uptake and localization of these peptides in various types of cells using FITC-labeled wild type or scrambled peptides. Despite the net positive charge of these peptides, their penetration into cells is cell type-specific. Some cell lines, such as HL-60 (an AML cell line), allowed peptide entry without any modification or facilitator, while others such as SNU-398 were not penetrable at all. […] The overall success rate of peptide uptake by the cells was above 95% with Pep-1, as evaluated by flow cytometry (FIG. 9A). […]

SNU398 cells = conditions: after addition to cell culture plates
Source text: Confocal microscopy was next used to study cellular uptake of TAT-WT by SNU398 cells in vitro.

Sequence: CCTAAGGTTAAGTCGCCCTCG [scramble shRNA]
- metastatic tumor formation (AN3CA cells): Four out of five

Sequence: GCCTTGAAACAAGCCAAGCTA (expressed or natural sequence) [SALL4-sh1]
- down-regulation of SALL4A and SALL4B (SALL4A and SALL4B): could down-regulate SALL4A and SALL4B efficiently

- peptide uptake (cells with peptide) (SNU387): 60% (Ch)
- peptide uptake (cells with peptide) (AML): 50% (Ch)
- peptide uptake (cells with peptide) (HuH-7): 60% (ch)
- peptide uptake (cells with peptide) (HL60): ~50%
- peptide uptake (cells with peptide) (MCF7): 70% (Ch)
- peptide uptake (cells with peptide) (CD34+): 50% (Ch)
- peptide uptake (cells with peptide) (KG1a): >15%
- peptide uptake (cells with peptide) (AML3): ~10%
- peptide uptake (cells with peptide) (SNU-398): 60% (Ch)
Sequence: MSRRAQAKPQHI [Mut peptide, MSRRAQAKPQHI, reference compound]

Sequence: YGRKKRRQRRRMSRRKQAKPHI [TAT-WT, NH2-YGRKKRRQRRR-MSRRKQAKPHI-COOH]
- time to localization within the nucleus (SNU398 cells): ≤ 15 min
